The term ED50 denotes the dose at which the effect has come halfway, by size or by number of responders.

Two compounds from patent US20080261863A1 (priority 2004, published 2008) can be followed below.

A short description of series [1]: Measurement of blood pressure in anesthetized rats. The series is classed as in vivo, rat. Particulars: male, Wistar, rat, in vivo; intravenous, rats; read-out: ED50 blood pressure lowering. The protocol: (§1) Blood pressure in rats was measured following administration of either non-PEGylated or PEGylated VPAC2 agonist peptides. Blood pressure was measured as follows: Male Wistar rats were anesthetized with pentobarbital (55 mg/kg, i.p.) and the right carotid artery and jugular vein were cannulated. The carotid cannula was connected to the Biopac System (Harvard Apparatus Co., Harvard, Mass.) for continuous monitoring of blood pressure and heart rate. Vehicle or peptide was administered by injection through the jugular vein catheter.

Series [2] relates to blood pressure in Male Wistar rats. Kind of series: Measurement of blood pressure in anesthetized rats. The series is classed as in vivo, rat. Particulars: FIG. 2, percentage of mean blood pressure of vehicle-treated rats. The protocol: as §1
The next series deals with T1, VPAC2 receptor (Homo sapiens, UniProt P41587).
T1 construct: expressed in transfected cells; host or cells: CHO cells under hygromycin and Geneticin selection
T1 sequence (P41587 24-438): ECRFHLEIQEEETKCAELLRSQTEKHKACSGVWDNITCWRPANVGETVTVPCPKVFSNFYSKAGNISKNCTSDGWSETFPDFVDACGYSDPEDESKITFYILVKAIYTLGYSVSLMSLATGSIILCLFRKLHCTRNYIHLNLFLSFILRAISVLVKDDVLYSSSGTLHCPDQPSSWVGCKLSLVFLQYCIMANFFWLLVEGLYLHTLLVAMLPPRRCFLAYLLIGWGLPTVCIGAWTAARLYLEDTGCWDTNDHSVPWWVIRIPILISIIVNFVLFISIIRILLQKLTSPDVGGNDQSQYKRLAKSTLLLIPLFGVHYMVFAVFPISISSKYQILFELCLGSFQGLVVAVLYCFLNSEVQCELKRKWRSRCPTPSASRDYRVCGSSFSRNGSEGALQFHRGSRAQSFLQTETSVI
The series is described as follows: Cyclic AMP SPA in CHO cells expressing VPAC2. It is filed as cell-based. The conditions noted are these: cAMP in cells overexpressing the VPAC2 receptor.

In another series the target is T2, VPAC1 (Homo sapiens, UniProt P32241).
T2 sequence (P32241 31-457): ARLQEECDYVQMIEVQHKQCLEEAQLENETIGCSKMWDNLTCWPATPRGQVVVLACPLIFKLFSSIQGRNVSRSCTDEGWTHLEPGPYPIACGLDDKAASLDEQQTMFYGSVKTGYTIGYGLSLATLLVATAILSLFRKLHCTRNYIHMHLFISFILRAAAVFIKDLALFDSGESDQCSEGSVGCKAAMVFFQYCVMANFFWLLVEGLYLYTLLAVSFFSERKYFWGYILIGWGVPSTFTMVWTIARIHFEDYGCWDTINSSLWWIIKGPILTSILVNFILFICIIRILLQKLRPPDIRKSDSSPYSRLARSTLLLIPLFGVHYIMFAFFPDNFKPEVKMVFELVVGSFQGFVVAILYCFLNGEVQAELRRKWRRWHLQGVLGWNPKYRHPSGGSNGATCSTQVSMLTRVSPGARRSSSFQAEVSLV
Kind of series: Cyclic AMP assay, VPAC1 agonist activity. It is filed as cell-based.

Protocol for VPAC2 receptor: CHO cells expressing the VPAC2 peptide were plated in 96-well plates at 8×10^4 cells/well and grown at 37° C. for 24 hours in αMEM, nucleosides, glutamine (Gibco/BRL, Rockville, Md.), 5% FBS, 100 μg/mL Pen/Strep, 0.4 mg/mL hygromycin, and 1.5 mg/mL Geneticin (Gibco/BRL). The media was removed and the plates were washed with PBS. The cells were incubated with a peptide (in 10 mM Hepes, 150 mM NaCl, 5 mM KCl, 2.5 mM CaCl2, 1.2 mM KH2PO4, 1.2 mM MgSO4, 25 mM NaHCO3 (pH 7.4) with 1% BSA and 100 μM IBMX) for 15 min. at 37° C. Cyclic AMP in the cell extracts was quantitated using the cAMP SPA direct screening assay system (Amersham Pharmacia Biotech Inc., Piscataway, N.J.,). The amount of cAMP present in the lysates was determined following instructions provided with this kit. The amount of cAMP (in pmol) produced at each concentration of peptide was plotted and analyzed by nonlinear regression using Prizm software to determine the EC50 for each peptide.

Regarding `CC[C@H](C)[C@H](NC(=O)[C@H](CO)NC(=O)[C@H](CCC(N)=O)NC(=O)[C@H](CC(C)C)NC(=O)[C@H](Cc1ccc(O)cc1)NC(=O)[C@H](CCCCN)NC(=O)[C@H](CCCCN)NC(=O)[C@H](C)NC(=O)[C@H](C)NC(=O)[C@@H](NC(=O)[C@H](CCC(N)=O)NC(=O)[C@H](CCCCN)NC(=O)[C@H](CCCNC(=N)N)NC(=O)[C@H](CC(C)C)NC(=O)[C@H](CCCNC(=N)N)NC(=O)[C@@H](NC(=O)[C@H](Cc1ccc(O)cc1)NC(=O)[C@H](CCC(N)=O)NC(=O)[C@H](CC(=O)O)NC(=O)[C@@H](NC(=O)[C@H](Cc1ccccc1)NC(=O)[C@@H](NC(=O)[C@H](C)NC(=O)[C@H](CC(=O)O)NC(=O)[C@H](CO)NC(=O)[C@@H](N)Cc1c[nH]cn1)C(C)C)[C@@H](C)O)[C@@H](C)O)C(C)C)C(=O)N[C@@H](CCCCN)C(=O)N[C@@H](CCC(N)=O)C(=O)N[C@@H](CCCCN)C(=O)N[C@@H](CCCNC(=N)N)C(=O)N[C@@H](Cc1ccc(O)cc1)C(=O)N[C@@H](CS)C(=O)O` [Peptide P12], the ED50 in series [1] was 3 µg/kg. Moreover, the “effect on blood pressure” value in series [2] is on record as “significantly lowers blood pressure”.

For PACAP-27, the “VPAC2 receptor agonist activity” value at VPAC2 receptor is “potent agonist of both the VPAC1 and VPAC2 receptors”. Moreover, the “VPAC1 agonist activity” value at VPAC1 was “potent agonist of both the VPAC1 and VPAC2 receptors”.
